Key:
Format in all cases: cell-based
[1] = tested on: human colorectal adenocarcinoma cells (DLD-1); assay: MTT anti-proliferative assay, DLD-1 (Examples 3-12); conditions: for % stim. / Mean OD (570 nm) / inhibition at 200 µg/mL / % inhibition: 200 μg/ml; for % stim. / Mean OD (570 nm) / % inhibition: 48 hours
Description: (§1) 5-phenylpenta-2,4-dienoic acid was assessed for its ability to modulate the viability and proliferation of human colorectal adenocarcinoma cells (DLD-1); human colon cancer cell line (HCT-116); human gastric carcinoma cell line (NCI-N87); and human oesophageal squamous cell carcinoma cell line (KYSE-30) as assessed by the MTT assay. The positive control, 5-fluorouracil (5-FU) was included at three concentrations; in addition to an unsupplemented cell control as a negative control in the study. The 5-phenylpenta-2,4-dienoic acid was a genuine standard with chemical structure confirmed by NMR and MS.
(§2) The four human gastrointestinal carcinoma cell lines were revived from cryostorage and cultured in the presence of the test and reference samples. An MTT assay was then performed on the cultures to determine the effect of the samples on the cell viability and proliferation.
(§3) The test sample 5-phenylpenta-2,4-dienoic acid, and all other test samples in Examples 4-12 (except tectochrysln) were Initially dissolved in pure ethanol to a concentration of around 13.35 mg/ml. Tectochrysin was initially dissolved in triethylene glycol mono-methyl ether to the same concentration. Working solutions were then prepared from the stock solutions by dilution to 15% ethanol/Hanks Balanced Salt Solution (ETOH)/HBSS to a concentration of 2 mg/mL solids. In the assay the final concentration of the samples was 200 μg/ml with a final EtOH concentration of 1.5%. Final concentrations of test compounds and propolis prepared as above are as noted in Example 3.
(§4) • 1. Human colorectal adenocarcinoma cells (ATCC CCI-221, DLD-1)(ATCC, Bethesda, Md., USA) • 2. Human gastric carcinoma cells (ATCC CRL-5822, NCI-N87)(ATCC, Bethesda, Md., USA) • 3. Human oesophageal squamous cell carcinoma (ECACC, KYSE-30)(Sigma Aldrich, Auckland, NZ) • 4. Human colon carcinoma cells (ECACC HCT-116)(Sigma Aldrich, Auckland, NZ) • 5. Penicillin-streptomycin solution: 10000 units/ml penicillin, 10 mg/ml streptomycin in 0.9% NaCl (Sigma Cat #P-0781). Stored at −20° C. • 6. For DLD-1 cells: DMEM culture medium (Invitrogen Cat #12100-046). Stored at 4° C. • 7. For NCI-N87 cells: RPMI-1640 medium modified to contain 2 mM L-glutamine, 10 mM HEPES, 1 mM sodium pyruvate, 4500 mg/L glucose, and 1500 mg/L sodium bicarbonate (Sigma R6504). Stored at 4° C. • 8. For KYSE-410 cells: RPMI-1640 medium modified to contain 2 mM L-glutamine (Sigma R6504). Stored at 4° C. • 9. For HCT-116 cells: McCoy's 5A medium modified to contain 2 mM L-glutamine (Sigma M48792). Stored at 4° C. • 10. Trypsin-EDTA solution: 0.25% Trypsin/EDTA, Invitrogen Cat#15400054 (×10 in stock). • 11. Phosphate buffered saline (PBS) (Prepared by TBL). • 12. Hanks Balanced Salt Solution (HBSS). (GIBCO Cat No. 14185-052). Stored at 4° C. • 13. Foetal Bovine Serum (GIBCO Cat #10091-148). Stored at −20° C. • 14. MTT Reagent: 100 mg/vial, (SIGMA Cat. No. M-2128) dissolved in PBS at 10 mg/ml and stored at −20° C. 5 mg/ml MTT solution will be prepared in PBS and stored at 4° C. as working solution. • 15. MTT lysis buffer: 10% sodium dodecyl sulphate (SDS)/45% Dimethyl Formamide (20 g SDS will be dissolved in 100 ml of double-distilled water (DDW), and 90 ml of Dimethyl Formamide will be added to the SDS solution). The pH will be adjusted to 4.7 by glacial acetic acid, and DDW added up to a final volume of 200 ml. • 16. 5-Fluorouracil (5-FU), (Sigma Cat. No. F-6627). Three working solutions will be prepared at 19.5 μg/ml. 6.5 μg/ml and 1.95 μg/ml dissolved in 15% Ethanol/HBSS. Final concentrations will be 1.95 μg/ml (15 μM), 0.65 μg/ml (5 μM) and 0.195 μg/ml (1.5 μM).
(§5) The medium for the propagation of the each of the cells lines is given above. Each medium was prepared following the ATCC/ECACC instructions and supplemented with penicillin-streptomycin solution (10 ml per litre). FBS (at 10%) was added just before use.
• 1. […]

[2] = tested on: human colon cancer cell line (HCT-116); assay: MTT anti-proliferative assay, HCT-116 (Examples 3-12)
Description: as §1, §2, §3, §4, §5
• 1. […]

[3] = tested on: human gastric carcinoma cell line (NCI-N87); assay: MTT anti-proliferative assay, NCI-N87 (Examples 3-12); conditions: for % stim. / Mean OD (570 nm) / inhibition at 200 µg/mL / % inhibition: 200 μg/ml; for % stim. / Mean OD (570 nm) / % inhibition: 48 hours
Description: as §1, §2, §3, §4, §5
• 1. […]

[4] = tested on: human oesophageal squamous cell carcinoma cell line (KYSE-30); assay: MTT anti-proliferative assay, KYSE-30 (Examples 3-13)
Description: as §1, §2, §3, §4, §5
• 1. […]

[5] = tested on: human oesophageal squamous cell carcinoma cell line (KYSE-30); assay: as above; remark: listed apart in the source
[6] = Homo sapiens, HCT-116, 48 h, 200 μg/ml
[7] = Examples 3-12, 200 μg/ml, 48 hours
[8] = Homo sapiens, KYSE-30, 48 h, Examples 3-12, 200 μg/ml, 48 hours

| Compound | % stim. [1] [%] | Mean OD (570 nm) [1] | inhibition at 200 µg/mL ([1]; Homo sapiens, DLD-1, 48 h) [%] | % stim. ([2]; 200 μg/ml, 48 hours) [%] | Mean OD (570 nm) ([2]; 200 μg/ml, 48 hours) | inhibition at 200 µg/mL [2, 6] [%] | % stim. [3] [%] | Mean OD (570 nm) [3] | inhibition at 200 µg/mL ([3]; Homo sapiens, NCI-N87, 48 h) [%] | % stim. [4, 7] [%] | Mean OD (570 nm) [4, 7] | inhibition at 200 µg/mL [4, 8] [%] | % inhibition [1] [%] | % inhibition [3] [%] | further results |
| --- | --- | --- | --- | --- | --- | --- | --- | --- | --- | --- | --- | --- | --- | --- | --- |
| O=C1C[C@@H](c2ccccc2)Oc2cc(O)cc(O)c21 [Pinocembrin, reference compound] | 0 | 0.0341 | 91.7 | 0 | 0.0045 | 99.1 | 0 | 0.1214 | 72.5 | 0 | 0.0225 | 96.3 |  |  | % inhibition ([5]; Example 13, 100 μg/ml): 50.26%; Mean OD (570 nm) ([5]; Example 13, 100 μg/ml): 0.1668; inhibition at 100 µg/mL ([5]; Homo sapiens, KYSE-30, Example 13, 100 μg/ml): 50.3% |
| O=c1[nH]cc(F)c(=O)[nH]1 [Sample 5-FU, 5-fluorouracil, reference compound] |  |  |  |  |  |  |  |  |  |  |  |  |  |  | inhibition at 0.195 µg/mL ([1]; Homo sapiens, DLD-1, 48 h, 0.195 μg/ml): 26.5%; inhibition at 0.65 µg/mL ([1]; Homo sapiens, DLD-1, 48 h, 0.65 μg/ml): 37.3%; inhibition at 1.95 µg/mL ([1]; Homo sapiens, DLD-1, 48 h, 1.95 μg/ml): 41.6%; inhibition at 0.195 µg/mL ([2]; Homo sapiens, HCT-116, 48 h, 0.195 μg/ml): 33.9%; inhibition at 0.65 µg/mL ([2]; Homo sapiens, HCT-116, 48 h, 0.65 μg/ml): 54%; inhibition at 1.95 µg/mL ([2]; Homo sapiens, HCT-116, 48 h, 1.95 μg/ml): 57.3%; inhibition at 0.195 µg/mL ([3]; Homo sapiens, NCI-N87, 48 h, 0.195 μg/ml): 7.52%; inhibition at 0.65 µg/mL ([3]; Homo sapiens, NCI-N87, 48 h, 0.65 μg/ml): 17.2%; inhibition at 1.95 µg/mL ([3]; Homo sapiens, NCI-N87, 48 h, 1.95 μg/ml): 16.2%; inhibition at 0.195 µg/mL ([4]; Homo sapiens, KYSE-30, 48 h, Examples 3-12, 0.195 μg/ml, 48 hours): 23.8%; inhibition at 0.195 µg/mL ([4]; Homo sapiens, KYSE-30, Example 13, 0.195 μg/ml): 3.41%; inhibition at 0.65 µg/mL ([4]; Homo sapiens, KYSE-30, Example 13, 0.65 μg/ml): 16.6%; inhibition at 1.95 µg/mL ([4]; Homo sapiens, KYSE-30, Example 13, 1.95 μg/ml): 31.5%; inhibition at 0.65 µg/mL ([5]; Homo sapiens, KYSE-30, 48 h, Examples 3-12, 0.65 μg/ml, 48 hours): 39.4%; inhibition at 1.95 µg/mL ([5]; Homo sapiens, KYSE-30, 48 h, Examples 3-12, 1.95 μg/ml, 48 hours): 47.5% |
| COc1cc(O)c2c(=O)cc(-c3ccccc3)oc2c1 [Tectochrysin, tectochrysin] |  |  |  |  |  |  |  |  |  |  |  |  | 92.8 | 54.0 | % inhibition ([2]; 200 μg/ml, 48 hours): 90.1%; % inhibition [4, 7]: 87.6% |
| O=C(O)/C=C/c1ccc(O)cc1 [p-coumaric acid, para-coumaric acid, reference compound] | 0 | 0.3531 | 14.3 | 2.6 | 0.5216 | 0 | 0 | 0.3652 | 17.3 | 0 | 0.3243 | 46.1 | 14.34 | 17.31 |  |

Source: patent US20160030364A1, “Therapeutic Compositions and Uses Thereof” (MANUKA HEALTH NEW ZEALAND LIMITED, priority 2013, published 2016)
